From ChEMBL document CHEMBL6121016, “Design, Synthesis, and Biological Evaluation of 1,3,4-Thiadiazole Derivatives as Novel Potent Peptide Deformylase Inhibitors for Combating Drug-Resistant Gram-Positive and -Negative Bacteria” (J Med Chem, 2025) come the findings set out here.

As a reminder, the solubility is the dissolved amount per volume that the medium holds. Low readings indicate a poorly soluble substance, high ones a readily soluble substance. The MIC is the lowest concentration that inhibits growth of the organism. What is called IC50 is the midpoint of a concentration-inhibition curve.

Converted amounts (≈) assume the structure as drawn. The source made the active and inactive calls. The calls are words filed in the database; no cut-off is given here.

For data set [1], the system named is Acinetobacter baumannii. Description: Anti-biofilm activity against Acinetobacter baumannii at 0.5 to 64 microg/ml incubated for 24 hrs by microplate reader analysis. It counts as functional. The following applies: dose 0.5-64 µg/ml, at 0.5 to 64 µg/mL.
A short description of data set [2]: Aqueous solubility of compound at 0.9% aqueous NaCl solution incubated for 2 hrs by UV spectrophotometry analysis. It counts as physicochemical.
The next data set has as its system Escherichia coli. The data set is described as follows: Antibacterial activity against Escherichia coli ATCC 10668 after 16 to 18 hrs by broth microdilution method. It counts as functional. The following applies: time 16-18 hrs. (In general: Dilution methods test growth across graded concentrations, often in twofold steps.)
Data set [3] can be described thus: Acute toxicity in KM mouse infected with drug-resistant Acinetobacter baumannii assessed as pathological changes in liver at 40 mg/kg by HE staining based analysis. It counts as organism-based. The following applies: in vivo.
The subject of another data set is Staphylococcus aureus. Description: Antibacterial activity against methicillin-resistant Staphylococcus aureus ATCC 43300 after 16 to 18 hrs by broth microdilution method. It counts as functional. To be noted: time 16-18 hrs.
Data set [4] has as its system Acinetobacter baumannii. Description: Induction of morphological changes in Acinetobacter baumannii Bio 53272 assessed as increased wrinkles at 8 times of MIC incubated for 4 hrs by Field emission scanning electron microscopic analysis. It counts as functional, organism-based.
Another data set has as its system Klebsiella pneumoniae. The data set is described as follows: Antibacterial activity against Klebsiella pneumoniae CICC 20093 after 16 to 18 hrs by broth microdilution method. It counts as functional. The following applies: time 16-18 hrs.
A short description of data set [5]: Methemoglobin toxicity in human blood at 500 uM incubated for 6 hrs by MetHb content assay. It counts as tissue-based.
The test system of data set [6] is Acinetobacter baumannii. Description: Antibacterial activity against drug-resistant Acinetobacter baumannii Bio 53272 after 16 to 18 hrs by broth microdilution method. To be noted: time 16-18 hrs. It counts as functional.
The target of another data set is T1, Peptide deformylase (Escherichia coli, UniProt Q9JN24).
T1 sequence (Q9JN24 whole entry): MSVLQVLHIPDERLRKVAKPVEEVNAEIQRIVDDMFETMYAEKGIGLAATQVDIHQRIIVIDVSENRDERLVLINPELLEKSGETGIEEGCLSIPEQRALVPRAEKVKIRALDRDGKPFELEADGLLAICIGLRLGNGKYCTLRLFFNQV
Description: Inhibition of Escherichia coli PDF-Ni assessed as enzyme activity incubated for 30 min by fluorescamine method.

For data set [7], the system named is Acinetobacter baumannii. Description: Antibacterial activity against Acinetobacter baumannii Bio 53250 after 16 to 18 hrs by broth microdilution method. To be noted: time 16-18 hrs. It counts as functional.
Data set [8] concerns Acinetobacter baumannii. Description: Antibacterial activity against Acinetobacter baumannii Bio 120982 after 16 to 18 hrs by broth microdilution method. It counts as functional. The following applies: time 16-18 hrs.

Regarding `CCCC[C@H](CN(O)C=O)C(=O)N1CCC[C@H]1c1nnc(-c2cccs2)s1`, the Activity in the data set on Acinetobacter baumannii [1] is 7.1%; in [3], “Non-toxic”; in data set [5], “Toxic”. The same molecule yielded a solubility at 2 h in [2] of 2600 µg/mL (≈ 6360 µM). The MIC against Escherichia coli amounted to 8 µg/mL (≈ 19.6 µM); in the data set on Staphylococcus aureus it was 0.125 µg/mL (≈ 0.306 µM); in the data set on Klebsiella pneumoniae, 16 µg/mL (≈ 39.2 µM); in the data set with Acinetobacter baumannii [6] it was 0.5 µg/mL (≈ 1.22 µM); in the data set with Acinetobacter baumannii [7] it was 4 µg/mL (≈ 9.79 µM); against Acinetobacter baumannii [8] it was 4 µg/mL (≈ 9.79 µM). The outcome in the data set with Acinetobacter baumannii [4] was Active. Also, the IC50 at Peptide deformylase came out at 10.6 nM.
